Experimental data taken from patent US10568930B2, “Agents and methods of treatment” (Hexima Limited, priority 2014, dated 2020).
Where two headings read alike, the source gives them in different places.

What was measured:
Candida albicans [1] = test: Antifungal growth assay, defensin plus proteinase inhibitor; format: cell-based; set-up: key to Synergy: Io-Ee in % inhibition points; >60 high synergy, <15 none; details: for Expected inhibition: Ee, Limpel formula; for Synergy: Io-Ee
Method: (§1) Spores are isolated from sporulating fungus spp. growing on yeast extract peptone dextrose agar (Candida albicans, Cryptococcus gattii—1.5×10^6) or ½ strength Sabouraud dextrose agar (Trichophyton interdigitale, Microsporum fulvum—5×10^4). Spores are removed from the plates by the addition of ½ strength potato dextrose broth (PDB). Spore concentrations are measured using a haemocytometer.
(§2) Antifungal assays were conducted in 96 well microtitre plates. Wells were loaded with 10 μL of filter sterilized (0.22 μm syringe filter, Millipore) defensin (10× stock for each final concentration) or water, 10 μL, of filter sterilized (0.22 μm syringe filter, Millipore) proteinase inhibitor or chemical fungicide (10× stock for each final concentration) or water and 80 μL of 5×10^3 spores/mL in ½ strength PDB. The plates were incubated at 24° C. Fungal growth was assayed by measuring optical density at 595 nm (A595) using a microtitre plate reader (SpectraMax Pro M2; Molecular Devices. Growth was allowed to proceed until the optical density (OD) of the fungus in the absence of any test defensin reached an OD of 0.2. Each test was performed in duplicate.
(§3) Synergy is classified as the difference between the observed % fungal growth inhibition caused by the combination of a defensin and a proteinase inhibitor (or a defensin and a chemical fungicide) (Io value) and the expected % fungal growth inhibition of the defensin and the proteinase inhibitor (or the defensin and the chemical fungicide) based on the sum of the % fungal growth inhibition of the defensin and the proteinase inhibitor (or the defensin and the chemical fungicide) on their own (Ee value calculated according to the Limpel formula used by Richer et al. (1987) supra). The difference, Io-Ee, is the synergy value. A synergy value up to 15 means no significant synergy; 15-30 is a low level of synergy; 30-60 is a medium level of synergy; and >60 is a high level of synergy. Synergy calculations are presented in Tables 2 through 7 wherein, as indicated above, Ee is the expected effect from the additive response according to Limpel's formula expressed as percent inhibition and To is the percent inhibition observed. Synergy occurs when To values are higher than Ee values.

Cryptococcus gattii = test: as above; format: cell-based; details: for Expected inhibition: Ee, Limpel formula; for Synergy: Io-Ee
Method: as §1, §2, §3

[2] = tested on: Trichophyton interdigitale; test: as above; format: cell-based; details: for Expected inhibition: Ee, Limpel formula; for Synergy: Io-Ee
Method: as §1, §2, §3

Candida albicans [3] = test: Antifungal growth assay, defensin plus chemical fungicide; format: cell-based; set-up: key to Synergy: Io-Ee in % inhibition points; <15 none, 15-30 low, 30-60 medium, >60 high; details: for Expected inhibition: Ee, Limpel formula; for Synergy: Io-Ee
Method: Chemical fungicides were sourced commercially and were prepared as 10× stock solutions in H2O (caspofungin and fenpropimorph) or as a 100× stock in methanol (terbinafine).
as §1, §2, §3

Microsporum fulvum = test: Antifungal growth assay, defensin plus proteinase inhibitor; format: cell-based; details: for Expected inhibition: Ee, Limpel formula; for Synergy: Io-Ee
Method: as §1, §2, §3

plasma membrane = details: cited from earlier work
[4] = defensin 2 μM + BPTI (0.625 μM)
[5] = defensin 2 μM + HyCPI6 (2.5 μM)
[6] = defensin 2 μM + SlCys9N (2.5 μM)
[7] = defensin 0.5 μM + BPTI (0.625 μM)
[8] = defensin 0.5 μM + HvCPI6 (2.5 μM)
[9] = defensin 0.5 μM + SlCys9N (2.5 μM)
[10] = defensin 1.5 μM + Caspofungin (2 ng/ml)
[11] = defensin 1.5 μM + Fenpropimorph (2 ug/ml)
[12] = defensin 1.5 μM + Terbinafine (4 ng/ml)
[13] = defensin 2 μM + HvCPI6 (2.5 μM)
[14] = defensin 0.5 μM + HyCPI6 (0.625 μM)
[15] = defensin 0.5 μM + SlCys9N (5 μM)
[16] = defensin 1 μM + BPTI (0.625 μM)
[17] = defensin 1 μM + HvCPI6 (2.5 μM)
[18] = defensin 1 μM + SlCys9N (2.5 μM)
[19] = permeabilizing defensin 1 μM + Caspofungin (2 ng/ml)

HXP4: artificial (synthetic) defensin variant, SEQ ID NO:8; permeabilizing (RECKTESHRFKGPCITKPPCRKACISEKFTDGHCSKILRRCLCTKPC; HXP4 protein)
Observed inhibition (Candida albicans [1]; [4]): 100% | Expected inhibition (Candida albicans [1]; [4]): 16.2% | Synergy (Candida albicans [1]; [4]): 83.8 | Observed inhibition (Candida albicans [1]; [5]): 93.5% | Expected inhibition (Candida albicans [1]; [5]): 15.9% | Synergy (Candida albicans [1]; [5]): 77.6 | Observed inhibition (Candida albicans [1]; [6]): 92.4% | Expected inhibition (Candida albicans [1]; [6]): 33% | Synergy (Candida albicans [1]; [6]): 59.4 | Observed inhibition (Cryptococcus gattii; [7]): 97.4% | Expected inhibition (Cryptococcus gattii; [7]): 48.8% | Synergy (Cryptococcus gattii; [7]): 48.6 | Observed inhibition (Cryptococcus gattii; [8]): 97.4% | Expected inhibition (Cryptococcus gattii; [8]): 18.6% | Synergy (Cryptococcus gattii; [8]): 78.8 | Observed inhibition (Cryptococcus gattii; [9]): 99.3% | Expected inhibition (Cryptococcus gattii; [9]): 0.0% | Synergy (Cryptococcus gattii; [9]): 99.3 | Observed inhibition [2, 7]: 69.0% | Expected inhibition [2, 7]: 32.9% | Synergy [2, 7]: 36.1 | Observed inhibition [2, 8]: 56.8% | Expected inhibition [2, 8]: 31.1% | Synergy [2, 8]: 25.7 | Observed inhibition [2, 9]: 53.0% | Expected inhibition [2, 9]: 9.7% | Synergy [2, 9]: 43.4 | Observed inhibition (Candida albicans [3]; [10]): 64.5% | Expected inhibition (Candida albicans [3]; [10]): 14.5% | Synergy (Candida albicans [3]; [10]): 50.0 | Observed inhibition (Candida albicans [3]; [11]): 97.6% | Expected inhibition (Candida albicans [3]; [11]): 15% | Synergy (Candida albicans [3]; [11]): 82.6 | Observed inhibition (Candida albicans [3]; [12]): 82.7% | Expected inhibition (Candida albicans [3]; [12]): 44.8% | Synergy (Candida albicans [3]; [12]): 37.9

NaD1: Solanaceous Class II plant defensin from flowers of Nicotiana alata (Q8GTMO); permeabilizing defensin (RECKTESNTFPGICITKPPCRKACISEKFTDGHCSKILRRCLCTKPC; UniProt Q8GTM0 26-72, looked up)
Observed inhibition (Candida albicans [1]; [4]): 94.1% | Expected inhibition (Candida albicans [1]; [4]): 29.7% | Synergy (Candida albicans [1]; [4]): 64.4 | Observed inhibition (Candida albicans [1]; [5]): 64.7% | Expected inhibition (Candida albicans [1]; [5]): 0.0% | Synergy (Candida albicans [1]; [5]): 64.7 | Observed inhibition (Candida albicans [1]; [6]): 94.8% | Expected inhibition (Candida albicans [1]; [6]): 31.9% | Synergy (Candida albicans [1]; [6]): 62.9 | Observed inhibition (Cryptococcus gattii; [4]): 95.6% | Expected inhibition (Cryptococcus gattii; [4]): 22.0% | Synergy (Cryptococcus gattii; [4]): 73.7 | Observed inhibition (Cryptococcus gattii; [13]): 96.2% | Expected inhibition (Cryptococcus gattii; [13]): 32.1% | Synergy (Cryptococcus gattii; [13]): 64.1 | Observed inhibition (Cryptococcus gattii; [6]): 98.8% | Expected inhibition (Cryptococcus gattii; [6]): 0.0% | Synergy (Cryptococcus gattii; [6]): 98.8 | Observed inhibition (Microsporum fulvum; [7]): 52.9% | Expected inhibition (Microsporum fulvum; [7]): 34.3% | Synergy (Microsporum fulvum; [7]): 18.6 | Observed inhibition (Microsporum fulvum; [14]): 43.8% | Expected inhibition (Microsporum fulvum; [14]): 19.0% | Synergy (Microsporum fulvum; [14]): 24.8 | Observed inhibition (Microsporum fulvum; [15]): 79.9% | Expected inhibition (Microsporum fulvum; [15]): 40.7% | Synergy (Microsporum fulvum; [15]): 39.2 | Observed inhibition [2, 16]: 89.1% | Expected inhibition [2, 16]: 57.9% | Synergy [2, 16]: 31.2 | Observed inhibition [2, 17]: 71.6% | Expected inhibition [2, 17]: 33.5% | Synergy [2, 17]: 38.1 | Observed inhibition [2, 18]: 81.1% | Expected inhibition [2, 18]: 28.1% | Synergy [2, 18]: 53.0 | Observed inhibition (Candida albicans [3]; [19]): 61.7% | Expected inhibition (Candida albicans [3]; [19]): 1.2% | Synergy (Candida albicans [3]; [19]): 60.5 | Membrane permeabilization (plasma membrane; at concentrations corresponding to the IC50): significant membrane permeabilization | Membrane permeabilization (plasma membrane; at low concentrations that do not cause growth inhibition, van der Weerden et al. (2008)): some membrane permeabilization | Time at which permeabilization begins (plasma membrane; van der Weerden et al. (2010)): ≤ 15 min | Time at which permeabilization reaches its maximum (plasma membrane; van der Weerden et al. (2010)): 80 min
